{"source": "patent US20210177803A1", "about": "“NEW PHARMACEUTICAL USE FOR THE TREATMENT OF HEART FAILURE” (Novartis AG, priority 2018, published 2021)", "key": {"urinary cGMP": {"tested_on": "urinary cGMP", "details": "compared with enalapril, 1 week", "method": "(§1) Circulating high-sensitivity cardiac troponin (hsTn) and soluble ST2 (sST2) reflect myocardial stress in patients with heart failure (HF). Production of cyclic guanosine 3′5′ monophosphate (cGMP) in response to activation of natriuretic peptide receptors reduces cardiac afterload and preload.\n(§2) Ratios of geometric means (timepoint/baseline) were determined and compared as a ratio for sacubitril/valsartan vs. enalapril."}, "[1]": {"tested_on": "high-sensitivity cardiac troponin (hsTnT)", "details": "compared with enalapril, 4 weeks", "method": "as §1, §2"}}, "data": [{"smiles": "CCCCC(=O)N(Cc1ccc(-c2ccccc2-c2nn[n-]n2)cc1)[C@H](C(=O)[O-])C(C)C.CCOC(=O)[C@H](C)C[C@@H](Cc1ccc(-c2ccccc2)cc1)NC(=O)CCC(=O)[O-].[Na+].[Na+].[Na+]", "note": "[LCZ696, trisodium [3((1S,3R)-1-biphenyl-4-ylmethyl-3-ethoxycarbonyl-1-butylcarbamoyl) propionate-(S)-3′-methyl-2′-(pentanoyl{2″-(tetrazol-5-ylate)biphenyl-4′-ylmethyl}amino)butyrate]hemipentahydrate]", "values": [{"measurement": "Serial urinary cGMP (in words)", "setting": "urinary cGMP", "result": "increased"}, {"measurement": "Greater reduction in hsTnT", "setting": "[1]", "result": 16, "unit": "%"}]}]}
